# Results reported in patent US20200131132A1, “FARNESOID X RECEPTOR AGONISTS AND USES THEREOF” (Metacrine, Inc., priority 2017, published 2020).
# Target: T1, hFXR (Homo sapiens, UniProt Q96RI1)
# T1 construct: expressed in transfected cells; host or cells: CV-1 cells
# T1 sequence (Q96RI1 1-486): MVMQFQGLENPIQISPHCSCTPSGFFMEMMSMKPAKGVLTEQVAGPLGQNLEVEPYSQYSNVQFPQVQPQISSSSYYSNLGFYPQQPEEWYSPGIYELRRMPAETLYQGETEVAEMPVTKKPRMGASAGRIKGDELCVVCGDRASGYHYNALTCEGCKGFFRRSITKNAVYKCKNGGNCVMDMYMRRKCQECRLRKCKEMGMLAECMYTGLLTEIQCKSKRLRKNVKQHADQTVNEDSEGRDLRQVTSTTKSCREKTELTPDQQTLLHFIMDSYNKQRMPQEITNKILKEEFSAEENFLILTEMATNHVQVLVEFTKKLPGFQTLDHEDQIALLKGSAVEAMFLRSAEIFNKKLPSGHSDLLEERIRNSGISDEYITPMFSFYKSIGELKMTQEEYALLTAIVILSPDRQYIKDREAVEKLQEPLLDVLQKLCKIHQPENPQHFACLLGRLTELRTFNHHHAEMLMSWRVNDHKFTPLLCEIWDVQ
# T1 sequence (P19793 1-462 partner): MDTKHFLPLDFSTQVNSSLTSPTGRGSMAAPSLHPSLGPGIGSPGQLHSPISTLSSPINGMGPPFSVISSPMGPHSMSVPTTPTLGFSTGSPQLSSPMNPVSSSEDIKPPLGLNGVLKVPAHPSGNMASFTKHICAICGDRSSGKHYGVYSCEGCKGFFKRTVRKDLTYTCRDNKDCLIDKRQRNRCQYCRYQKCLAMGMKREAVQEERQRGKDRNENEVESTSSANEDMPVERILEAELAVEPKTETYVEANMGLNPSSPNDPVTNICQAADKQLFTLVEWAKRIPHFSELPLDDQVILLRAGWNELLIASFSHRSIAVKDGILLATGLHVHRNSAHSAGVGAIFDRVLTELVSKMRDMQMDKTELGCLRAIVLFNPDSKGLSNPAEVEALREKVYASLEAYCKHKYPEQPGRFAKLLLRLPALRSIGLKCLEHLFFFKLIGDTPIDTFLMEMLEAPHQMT
# Assay: In Vitro FXR Assay (TK)
# Assay type: cell-based
# Conditions: CV-1 cells transfected with hFXR, hRXR, TK-ECRE-luc and pCMX-YFP; compounds incubated 18 hrs; luminescence
# Experimental: CV-1 cells were seeded at a density of 2,000,000 cells in a T175 flask with DMEM+10% charcoal double-stripped FBS and incubated at 37° C. in 5% CO2 for 18 h (O/N).
# After 18 h of incubation, the medium in the T175 flask was changed with fresh DMEM+10% charcoal super-stripped serum. In a polypropylene tube, 2500 μL OptiMEM (Life Technologies, Cat #31985-062) was combined with expression plasmids for hFXR, hRXR, TK-ECRE-luc and pCMX-YFP. The tube was then briefly vortexed and incubated at room temperature for 5 minutes. Transfection reagent (X-tremeGENE HP from Roche, Cat #06 366 236 001) was added to the OptiMEM/plasmid mixture vortexed and incubated at room temperature for 20 minutes. Following incubation, the transfection reagent/DNA mixture complex was added to cells in the T175 flask and the cells were incubated at 37° C. in 5% CO2 for 18 h (O/N).
# Compounds were serially diluted in DMSO and added to transfected CV-1 cells. The cells were then incubated for 18 hrs. The next day cells were lysed and examined for luminescence.
row,SMILES,EC50
1,COc1ccc2c(N(C[C@H]3CC[C@H](c4ccc(OC)c(C)c4)CC3)C(=O)CC(C)(C)C)nccc2c1 [Compound 1],≤ 1 µM
2,"COc1ccc([C@H]2CC[C@H](CN(C(=O)CC(C)(C)C)c3nccc4cc(CO)ccc34)CC2)cc1C [Compound 2, N-(6-(Hydroxymethyl)isoquinolin-1-yl)-N-((trans-4-(4-methoxy-3-methylphenyl)cyclohexyl)methyl)-3,3-dimethylbutanamide]",≤ 1 µM
3,"COc1ccc(-c2ccc(CN(C(=O)CC(C)(C)C)c3nccc4cc(CO)ccc34)cc2)cc1C [Compound 2.01, N-(6-(Hydroxymethyl)isoquinolin-1-yl)-N-((4′-methoxy-3′-methyl-[1,1′-biphenyl]-4-yl)methyl)-3,3-dimethylbutanamide]",≤ 1 µM
4,"COc1ccc(-c2ccc(CN(C(=O)CC(C)(C)C)c3nccc4cc(COCCO)ccc34)cc2)cc1C [Compound 2.02, N-(6-((2-Hydroxyethoxy)methyl)isoquinolin-1-yl)-N-((4′-methoxy-3′-methyl-[1,1′-biphenyl]-4-yl)methyl)-3,3-dimethylbutanamide]",≤ 1 µM
5,"COc1ccc([C@H]2CC[C@H](CN(C(=O)CC(C)(C)C)c3nccc4cc(C)ccc34)CC2)cc1C [Compound 3, N-((trans-4-(4-Methoxy-3-methylphenyl)cyclohexyl)methyl)-3,3-dimethyl-N-(6-methylisoquinolin-1-yl)butanamide]",≤ 1 µM
6,"COc1ccc(-c2ccc(CN(C(=O)CC(C)(C)C)c3nccc4cc(Br)ccc34)cc2)cc1C [Compound 4, N-(6-Bromoisoquinolin-1-yl)-N-((4′-methoxy-3′-methyl-[1,1′-biphenyl]-4-yl)methyl)-3,3-dimethylbutanamide]",≤ 1 µM
7,"COc1ccc(-c2ccc(CN(C(=O)CC(C)(C)C)c3ncnc4ccccc34)cc2)cc1C [Compound 4.01, N-((4′-Methoxy-3′-methyl-[1,1′-biphenyl]-4-yl)methyl)-3,3-dimethyl-N-(quinazolin-4-yl)butanamide]",1 to 10 µM
8,"COc1ccc2c(N(Cc3ccc(-c4ccc(OC)c(C)c4)cc3)C(=O)CC(C)(C)C)nccc2c1 [Compound 4.02, N-((4′-Methoxy-3′-methyl-[1,1′-biphenyl]-4-yl)methyl)-N-(6-methoxyisoquinolin-1-yl)-3,3-dimethylbutanamide]",≤ 1 µM
9,"COc1ccc(-c2ccc(CN(C(=O)CC(C)(C)C)c3nccc4c3CCCC4)cc2)cc1C [Compound 4.03, N-((4′-Methoxy-3′-methyl-[1,1′-biphenyl]-4-yl)methyl)-3,3-dimethyl-N-(5,6,7,8-tetrahydroisoquinolin-1-yl)butanamide]",1 to 10 µM
10,"COc1ccc(-c2ccc(CN(C(=O)CC(C)(C)C)c3nccc4ccsc34)cc2)cc1C [Compound 4.04, N-((4′-Methoxy-3′-methyl-[1,1′-biphenyl]-4-yl)methyl)-3,3-dimethyl-N-(thieno[2,3-c]pyridine-7-yl)butanamide]",≤ 1 µM
11,"COc1ccc(-c2ccc(CN(C(=O)CC(C)(C)C)c3nccc4sccc34)cc2)cc1C [Compound 4.05, N-((4′-Methoxy-3′-methyl-[1,1′-biphenyl]-4-yl)methyl)-3,3-dimethyl-N-(thieno[3,2-c]pyridine-4-yl)butanamide]",≤ 1 µM
12,"COc1ccc(-c2ccc(CN(C(=O)CC(C)(C)C)c3nccc4ccc(Br)cc34)cc2)cc1C [Compound 4.06, N-(7-Bromoisoquinolin-1-yl)-N-((4′-methoxy-3′-methyl-[1,1′-biphenyl]-4-yl)methyl)-3,3-dimethylbutanamide]",≤ 1 µM
13,"COc1ccc(-c2ccc(CN(C(=O)CC(C)(C)C)c3nccc4c(Br)cccc34)cc2)cc1C [Compound 4.07, N-(5-Bromoisoquinolin-1-yl)-N-((4′-methoxy-3′-methyl-[1,1′-biphenyl]-4-yl)methyl)-3,3-dimethylbutanamide]",> 10 µM
14,"COc1ccc(-c2ccc(CN(C(=O)CC(C)(C)C)c3ccnc4ccccc34)cc2)cc1C [Compound 4.08, N-((4′-Methoxy-3′-methyl-[1,1′-biphenyl]-4-yl)methyl)-3,3-dimethyl-N-(quinolin-4-yl)butanamide]",> 10 µM
15,"COc1ccc(-c2ccc(CN(C(=O)CC(C)(C)C)c3nccc4cccnc34)cc2)cc1C [Compound 4.09, N-((4′-Methoxy-3′-methyl-[1,1′-biphenyl]-4-yl)methyl)-3,3-dimethyl-N-(1,7-naphthyridin-8-yl)butanamide]",≤ 1 µM
16,"COc1ccc(-c2ccc(CN(C(=O)CC(C)(C)C)c3cncc4ccccc34)cc2)cc1C [Compound 5, N-(Isoquinolin-4-yl)-N-((4′-methoxy-3′-methyl-[1,1′-biphenyl]-4-yl)methyl)-3,3-dimethylbutanamide]",1 to 10 µM
17,"COc1ccc(-c2ccc(CN(C(=O)CC(C)(C)C)c3cccc4cnccc34)cc2)cc1C [Compound 5.01, N-(Isoquinolin-5-yl)-N-((4′-methoxy-3′-methyl-[1,1′-biphenyl]-4-yl)methyl)-3,3-dimethylbutanamide]",> 10 µM
18,"COc1ccc(-c2ccc(CN(C(=O)CC(C)(C)C)c3cccc4ccncc34)cc2)cc1C [Compound 5.02, N-(Isoquinolin-8-yl)-N-((4′-methoxy-3′-methyl-[1,1′-biphenyl]-4-yl)methyl)-3,3-dimethylbutanamide]",> 10 µM
19,"COc1ccc(-c2ccc(CN(C(=O)CC(C)(C)C)c3nccc4cnccc34)cc2)cc1C [Compound 5.03, N-((4′-Methoxy-3′-methyl-[1,1′-biphenyl]-4-yl)methyl)-3,3-dimethyl-N-(2,6-naphthyridin-1-yl)butanamide]",1 to 10 µM
20,"COc1ccc(-c2ccc(CN(C(=O)CC(C)(C)C)c3nccc4ccncc34)cc2)cc1C [Compound 5.04, N-((4′-Methoxy-3′-methyl-[1,1′-biphenyl]-4-yl)methyl)-3,3-dimethyl-N-(2,7-naphthyridin-1-yl)butanamide]",1 to 10 µM
21,"COc1ccc(-c2ccc(CN(C(=O)CC(C)(C)C)c3nccc4cc(N5CCC(O)C5)ccc34)cc2)cc1C (centres unmarked) [Compound 6, N-(6-(3-Hydroxypyrrolidin-1-yl)isoquinolin-1-yl)-N-((4′-methoxy-3′-methyl-[1,1′-biphenyl]-4-yl)methyl)-3,3-dimethylbutanamide]",≤ 1 µM
22,"COc1ccc(-c2ccc(CN(C(=O)CC(C)(C)C)c3nccc4cc(N(C)CCO)ccc34)cc2)cc1C [Compound 6.01, N-(6-((2-Hydroxyethyl)(methyl)amino)iso-quinolin-1-yl)-N-((4′-methoxy-3′-methyl-[1,1′-biphenyl]-4-yl)methyl)-3,3-dimethylbutanamide]",≤ 1 µM
23,"COc1ccc(-c2ccc(CN(C(=O)CC(C)(C)C)c3nccc4cc(N(C)C)ccc34)cc2)cc1C [Compound 6.1, N-(6-(Dimethylamino)isoquinolin-1-yl)-N-((4′-methoxy-3′-methyl-[1,1′-biphenyl]-4-yl)methyl)-3,3-dimethylbutanamide]",≤ 1 µM
24,"COc1ccc(-c2ccc(CN(C(=O)CC(C)(C)C)c3nccc4cc(N5CCC(O)C5)cnc34)cc2)cc1C (centres unmarked) [Compound 6.2, N-(3-(3-Hydroxypyrrolidin-1-yl)-1,7-naphthyridin-8-yl)-N-((4′-methoxy-3′-methyl-[1,1′-biphenyl]-4-yl)methyl)-3,3-dimethylbutanamide]",≤ 1 µM
25,"COc1ccc(-c2ccc(CN(C(=O)CC(C)(C)C)c3nccc4cc(NCCO)ccc34)cc2)cc1C [Compound 6.02, N-(6-((2-Hydroxyethyl)amino)isoquinolin-1-yl)-N-((4′-methoxy-3′-methyl-[1,1′-biphenyl]-4-yl)methyl)-3,3-dimethylbutanamide]",≤ 1 µM
26,"COc1ccc(-c2ccc(CN(C(=O)CC(C)(C)C)c3nccc4cc(N5CC(O)C5)ccc34)cc2)cc1C [Compound 6.03, N-(6-(3-Hydroxyazetidin-1-yl)isoquinolin-1-yl)-N-((4′-methoxy-3′-methyl-[1,1′-biphenyl]-4-yl)methyl)-3,3-dimethylbutanamide]",≤ 1 µM
